Measured values taken from ChEMBL document CHEMBL5104144, “Exploring the roles of the Cdc2-like kinases in cancers” (Bioorg Med Chem, 2022).
One block for each compound: values may come before it.

What was measured:
[1] = Inhibition of GST-tagged recombinant mouse CLK1/STY expressed in Escherichia coli using RSPSYGRSRSRSRSRSRSRSRSNSRSRSY as substrate in presence of [gamma-32P]ATP by a liquid scintillation counter method
[2] = Inhibition of GST-tagged recombinant mouse CLK2 expressed in Escherichia coli using RSPSYGRSRSRSRSRSRSRSRSNSRSRSY as substrate in presence of [gamma-32P]ATP by a liquid scintillation counter method
[3] = target: T1, Dual specificity protein kinase CLK1 (Homo sapiens, UniProt P49759); assay: Inhibition of CLK1 (unknown origin) assessed as reduction in SRSF10 phosphorylation
T1 sequence (P49759 whole entry): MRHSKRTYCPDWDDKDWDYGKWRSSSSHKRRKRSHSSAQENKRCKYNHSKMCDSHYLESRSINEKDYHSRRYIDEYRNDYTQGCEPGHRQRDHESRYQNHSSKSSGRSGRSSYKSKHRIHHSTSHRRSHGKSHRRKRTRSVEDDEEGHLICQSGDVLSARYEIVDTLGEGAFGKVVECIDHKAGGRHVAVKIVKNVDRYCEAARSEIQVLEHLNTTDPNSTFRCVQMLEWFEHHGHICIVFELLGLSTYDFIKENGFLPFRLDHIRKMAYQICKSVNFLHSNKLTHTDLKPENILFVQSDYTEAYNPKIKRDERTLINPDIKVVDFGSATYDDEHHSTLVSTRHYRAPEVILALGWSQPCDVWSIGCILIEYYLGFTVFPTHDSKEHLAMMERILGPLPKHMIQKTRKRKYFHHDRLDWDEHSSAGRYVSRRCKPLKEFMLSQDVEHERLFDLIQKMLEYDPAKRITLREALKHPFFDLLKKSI

[4] = target: T2, Dual specificity protein kinase CLK4 (Homo sapiens, UniProt Q9HAZ1); assay: Inhibition of CLK4 (unknown origin) assessed as reduction in SRSF10 phosphorylation
T2 sequence (Q9HAZ1 whole entry): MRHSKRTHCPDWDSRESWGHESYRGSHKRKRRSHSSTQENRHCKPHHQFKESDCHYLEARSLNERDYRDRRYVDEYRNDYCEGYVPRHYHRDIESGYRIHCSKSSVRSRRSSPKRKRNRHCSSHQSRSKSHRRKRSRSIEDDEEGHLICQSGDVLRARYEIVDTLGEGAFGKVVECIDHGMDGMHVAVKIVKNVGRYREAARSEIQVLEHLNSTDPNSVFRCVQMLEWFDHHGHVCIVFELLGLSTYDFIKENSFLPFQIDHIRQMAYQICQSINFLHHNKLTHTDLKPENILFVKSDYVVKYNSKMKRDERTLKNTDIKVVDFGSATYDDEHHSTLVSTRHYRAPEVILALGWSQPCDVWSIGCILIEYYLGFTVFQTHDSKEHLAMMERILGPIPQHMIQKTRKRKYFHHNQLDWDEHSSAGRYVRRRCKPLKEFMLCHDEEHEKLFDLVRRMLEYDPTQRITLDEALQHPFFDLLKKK

[5] = target: T2, Dual specificity protein kinase CLK4; assay: Inhibition of CLK4 (unknown origin)
[6] = target: T2, Dual specificity protein kinase CLK4; assay: Inhibition of CLK4 (unknown origin) assessed as reduction in SRSF1 phosphorylation
[7] = target: T1, Dual specificity protein kinase CLK1; assay: Inhibition of CLK1 (unknown origin)
[8] = target: T2, Dual specificity protein kinase CLK4; assay: Inhibition of human CLK4 (146 to 480 residues) expressed in Escherichia coli BL21 (DE3) Turner using MBP as substrate incubated for 60 mins in presence of [gamma-32P]ATP by radiometric kinase assay

SMILES: CCN1/C(=C/C(C)=O)Sc2ccc(OC)cc21
IC50 [1]: 20 nM
IC50 [2]: 200 nM

IC50 [3]: 44 nM
IC50 [4]: 14 nM
IC50 [5]: 14 nM
IC50 [6]: 24 nM
IC50 [7]: 44 nM
SMILES: O=C(Nc1ccc2[nH]cnc2c1)c1csc(Nc2ccccc2)n1

IC50 [8]: 11 nM
SMILES: O=C(O)c1ccc2c(c1)nc(Nc1cccc(Cl)c1)c1ccncc12 [SILMITASERTIB]
